Experimental data taken from US9701681B2, “Fused ring heteroaryl compounds and their use as Trk inhibitors” (CMG Pharmaceutical Co., Ltd., priority 2014, dated 2017).

Each molecule was assayed on KM12-luc cells (assay: Cell proliferation assay (KM12)). Conditions: 72 hours exposure, read-out: IC50 (nM) Cell-based assay (KM12).
Experimental: Doxorubicin was purchased from Sigma Aldrich (D1515). All compounds were diluted in DMSO (Sigma Aldrich, D2650). AlamarBlue® cell viability reagent was purchased from Thermo Scientific (88952). CellTiter 96® AQueous One Solution Cell proliferation assay was purchased from Promega. KM12-luc cells were obtained from JCRB (National Institute of Health Sciences, Tokyo, Japan). They were maintained in DMEM medium (GIB-11965-118) supplemented with 10% fetal bovine serum (Gibco, 16000-044) and MEM Non-Essential Amino Acids Solution (Thermo Scientific, 11140-050). TF-1 cells were obtained from ATCC. They were maintained in RPMI medium (GIB-A10491) supplemented with 10% fetal bovine serum (Gibco, 16000-044), GM-CSF (Thermo Scientific, 11140-050), and β-NGF (R&D systems). Trypsin/EDTA was purchased from Gibco (GIB-25300-054, 0.05%). 96-well plates were purchased from Corning Inc.
The proliferation assay was performed for Chemical Compounds 1-61 s in media supplemented with 10% FBS, using AlamarBlue® cell viability reagent or CellTiter 96® AQueous One Solution Cell proliferation assay kit. Cells were cultured in humidified 37° C. incubator with 5% CO2. To evaluate the antiproliferation activity of compounds, TF-1 cells were adjusted to GM-CSF free media (RPMI, 10% FBS, and 1% penicillin-streptomycin) for 16 hr and were seeded in 96-well plates at 30,000 cells/well with medium (RPMI, 10% FBS, 1% penicillin-streptomycin and 10 ng/ml human β-NGF). KM12-luc were seeded at 10,000 cells per well into 96-well plates. After overnight incubation, serial dilutions of compounds were added to triplicate wells, and cells were exposed for 72 hours. The final concentration of DMSO was adjusted to 0.5% in media. Quantitation of cell growth was assessed using two kinds of reagent. 20 ul of AlamarBlue® reagent in an amount equal to 10% of the culture volume was added to each well and were incubated in humidified 37° C. incubator with 5% CO2 for 2 hr. Otherwise, 20 ul of CellTiter 96® reagent was added to each well and were incubated in the same conditions as previously described. Data were plotted, and GI50 values were calculated using GraphPad software. Table 1 below includes the results of the assays.

| Molecule | IC50 [nM] |
| --- | --- |
| CN1CCN(C(=O)/C=C/c2cnn3ccc(N4CCC[C@@H]4c4cc(F)ccc4F)nc23)CC1 [Chemical Compound 53, (R,E)-3-(5-(2-(2,5-difluorophenyl)pyrrolidin-1-yl)pyrazolo[1,5-a]pyrimidin-3-yl)-1-(4-methylpiperazin-1-yl)prop-2-en-1-one] | < 100 |
| CC(C)N1CCN(C(=O)/C=C/c2cnn3ccc(N4CCC[C@@H]4c4cc(F)ccc4F)nc23)CC1 [Chemical Compound 55, (R,E)-3-(5-(2-(2,5-difluorophenyl)pyrrolidin-1-yl)pyrazolo[1,5-a]pyrimidin-3-yl)-1-(4-isopropylpiperazin-1-yl)prop-2-en-1-one] | < 100 |
| CC1(O)CCN(C(=O)/C=C/c2cnn3ccc(N4CCC[C@@H]4c4cc(F)ccc4F)nc23)CC1 [Chemical Compound 58, (R,E)-3-(5-(2-(2,5-difluorophenyl)pyrrolidin-1-yl)pyrazolo[1,5-a]pyrimidin-3-yl)-1-(4-hydroxy-4-methylpiperidin-1-yl)prop-2-en-1-one] | < 10 |

What follows are molecules tested against T1, TRK A, B & C kinase (assay: TRK A, B & C kinase assay (ADP-Glo / HTRF KinEASE-TK)). Conditions: ADP-Glo or HTRF KinEASE-TK kit, isoform not specified, read-out: IC50 (nM) Enzymatic assay.
T1 construct: fused on or other part: Carna's Trk kinases are usually GST-tagged cytoplasmic domains
Assay type: biochemical
Experimental: ADP-Glo assay kit was purchased from Promega. poly (Glu, Tyr), Magnesium sulfate, Bovine serum albumin (BSA) and dimethylsulfoxide(DMSO) were purchased from Sigma-Aldrich. Tris-HCl buffer was purchased from BD Gentest. HTRF KinEASE-TK kit was purchased from cisbio. TRK A, B & C kinase was purchased from Carna bioscience.
Kinase assay was performed for Chemical Compounds 1-61 using two methods using luminescent ADP-Glo assay kit (Promega) and HTRF KinEASE-TK assay kit (cisbio). The luminescent ADP-Glo assay kit (Promega) measures ADP formed from a kinase reaction. ADP converted into ATP, which is then converted into light by Ultra-Glo luciferase. The HTRF KinEASE-TK assay kit (cisbio) measures tyrosine kinase activities using one substrate and a universal detection system.
ADP-Glo Assay Kit (Promega)
The protein kinase assay was performed for Chemical Compounds 1-61 at […] concentrations are 0.4 ng/ul of TrKA, 0.5 ng/ul of TrKB and 3 ng/ul of TrKC, respectively), 5 μL of 1 ug/ul stock solution of poly(glu, Tyr), 5 μL of compounds or assay buffer, 5 μL of ATP (125 μM stock solution).
The assay was started by incubating the reaction mixture in a 96-well plate at 30° C. for 1 hr. After the incubation, the assay was terminated by the addition of 25 […] Detection Reagent was added, and the 96-well plate was shaken and then incubated for additional 30 min at ambient temperature. The 96-well reaction plate was then read on an Enspire plate reader. The IC50 values were derived through a curve fitting using SigmaPlot.
HTRF KinEASE-TK Assay Kit (Cisbio)
The HTRF KinEASE-TK assay was performed for Chemical Compounds 1-61 in 384-well low volume microplate (Greiner). The HTRF KinEASE-TK assay format involves the two steps. The first step is kinase reaction step. This kinase reaction step was performed at RT (room temperature) in final volume of 10 ul according to the following assay reaction recipe: 10 ul of kinase mixture (Kinase (2 ul)+ATP (2 ul)+Substrate (2 ul)+Compound (4 ul)). Kinase final concentrations were 0.3 ng/ul of TRKA, 0.1 ng/ul of TRKB, 0.03 ng/ul of TRKC, respectively. ATP final concentrations were 14.7 uM (TRKA), 4.77 uM (TRKB), 25.6 uM (TRKC) respectively. TK-substrate final concentration was 0.3 ng/ul. The mixtures exposed to Dose response concentration (DRC) compound from 0 to 100 nM for 40 min. During the kinase reaction step, the kinase reaction was started by the addition of ATP. Kinase phosphorylates the substrate.
The second is detection step. 10 ul of detection reagents (5 ul Sa-XL 665 in EDTA+5 ul TK Antibody-Eu in EDTA) was added to kinase mixture. This step was performed at room temperature for 1 hr. The detection reagent detects phosphorylated substrates.
Finally 384-well reaction plate was then read on FlexStation 3 machine. The fluorescence was measured at 620 nm (Cryptate) and 665 nm (XL665). A ratio is calculated ([…]/620)×10^4 for each well. The IC50 value was derived through a curve fitting using GraphPad Prism. Table 1 below includes the results of the assays.

| Molecule | IC50 [nM] |
| --- | --- |
| Fc1ccc(F)c([C@H]2CCCN2c2ccn3ncc(-c4nnc(N5CCNCC5)o4)c3n2)c1 [Chemical Compound 18, (R)-2-(5-(2-(2,5-difluorophenyl)pyrrolidin-1-yl)pyrazolo[1,5-a]pyrimidin-3-yl)-5-(piperazin-1-yl)-1,3,4-oxadiazole] | > 100 |
| Fc1ccc(F)c([C@H]2CCCN2c2ccn3ncc(-c4nnc(-c5cn[nH]c5)s4)c3n2)c1 [Chemical Compound 19, (R)-2-(5-(2-(2,5-difluorophenyl)pyrrolidin-1-yl)pyrazolo[1,5-a]pyrimidin-3-yl)-5-(1H-pyrazol-4-yl)-1,3,4-thiadiazole] | < 10 |
| Fc1ccc(F)c([C@H]2CCCN2c2ccn3ncc(-c4nnc(-c5cc[nH]n5)s4)c3n2)c1 [Chemical Compound 20, (R)-2-(5-(2-(2,5-difluorophenyl)pyrrolidin-1-yl)pyrazolo[1,5-a]pyrimidin-3-yl)-5-(1H-pyrazol-3-yl)-1,3,4-thiadiazole] | > 100 |
| O=C(Nc1nnc(-c2cnn3ccc(N4CCC[C@@H]4c4cc(F)ccc4F)nc23)s1)c1ccccc1 [Chemical Compound 21, (R)—N-(5-(5-(2-(2,5-difluorophenyl)pyrrolidin-1-yl)pyrazolo[1,5-a]pyrimidin-3-yl)-1,3,4-thiadiazol-2-yl)benzamide] | > 100 |
| Fc1ccc(F)c([C@H]2CCCN2c2ccn3ncc(-c4nnc(N5CCNCC5)s4)c3n2)c1 [Chemical Compound 22, (R)-2-(5-(2-(2,5-difluorophenyl)pyrrolidin-1-yl)pyrazolo[1,5-a]pyrimidin-3-yl)-5-(piperazin-1-yl)-1,3,4-thiadiazole] | < 10 |
| Fc1ccc(F)c([C@H]2CCCN2c2ccn3ncc(-c4nnc(N5CCCNCC5)s4)c3n2)c1 [Chemical Compound 23, (R)-2-(1,4-diazepan-1-yl)-5-(5-(2-(2,5-difluorophenyl)pyrrolidin-1-yl)pyrazolo[1,5-a]pyrimidin-3-yl)-1,3,4-thiadiazole] | < 10 |
| Fc1ccc(F)c([C@H]2CCCN2c2ccn3ncc(-c4nnc(C5CCNCC5)o4)c3n2)c1 [Chemical Compound 24, (R)-2-(5-(2-(2,5-difluorophenyl)pyrrolidin-1-yl)pyrazolo[1,5-a]pyrimidin-3-yl)-5-(piperidin-4-yl)-1,3,4-oxadiazole] | < 10 |
| (R,E)-3-(5-(2-(2,5-difluorophenyl)pyrrolidin-1-yl)pyrazolo[1,5-a]pyrimidin-3-yl)-1-(4-ethylpiperazin-1-yl)prop-2-en-1-one [Chemical Compound 54] | > 100 |

The next lines start with the values.

| IC50 [nM] | Molecule |
| --- | --- |
| < 10 | Fc1ccc(F)c([C@H]2CCCN2c2ccn3ncc(-c4cn(C5CCNCC5)nn4)c3n2)c1 [Chemical Compound 33, (R)-5-(2-(2,5-difluorophenyl)pyrrolidin-1-yl)-3-(1-(piperidin-4-yl)-1H-1,2,3-triazol-4-yl)pyrazolo[1,5-a]pyrimidine] |
| < 10 | Fc1ccc(F)c([C@H]2CCCN2c2ccn3ncc(-c4cn(C5CCCNC5)nn4)c3n2)c1 (stereo partly drawn) [Chemical Compound 34, 5-((R)-2-(2,5-difluorophenyl)pyrrolidin-1-yl)-3-(1-(piperidin-3-yl)-1H-1,2,3-triazol-4-yl)pyrazolo[1,5-a]pyrimidine] |
| < 10 | Fc1ccc(F)c([C@H]2CCCN2c2ccn3ncc(-c4cn(C5CCNC5)nn4)c3n2)c1 (stereo partly drawn) [Chemical Compound 35, 5-((R)-2-(2,5-difluorophenyl)pyrrolidin-1-yl)-3-(1-(pyrrolidin-3-yl)-1H-1,2,3-triazol-4-yl)pyrazolo[1,5-a]pyrimidine] |
| < 10 | O=C(Cn1cc(-c2cnn3ccc(N4CCC[C@@H]4c4cc(F)ccc4F)nc23)nn1)N1CCNCC1 [Chemical Compound 37, (R)-2-(4-(5-(2-(2,5-difluorophenyl)pyrrolidin-1-yl)pyrazolo[1,5-a]pyrimidin-3-yl)-1H-1,2,3-triazol-1-yl)-1-(piperazin-1-yl)ethan-1-one] |
| < 10 | O=C1CN(C(=O)/C=C/c2cnn3ccc(N4CCC[C@@H]4c4cc(F)ccc4F)nc23)CCN1 [Chemical Compound 51, (R,E)-4-(3-(5-(2-(2,5-difluorophenyl)pyrrolidin-1-yl)pyrazolo[1,5-a]pyrimidin-3-yl)acryloyl)piperazin-2-one] |
| < 10 | CC(C)(O)C1CN(C(=O)/C=C/c2cnn3ccc(N4CCC[C@@H]4c4cc(F)ccc4F)nc23)CCN1 (stereo partly drawn) [Chemical Compound 52, (E)-3-(5-((R)-2-(2,5-difluorophenyl)pyrrolidin-1-yl)pyrazolo[1,5-a]pyrimidin-3-yl)-1-(3-(2-hydroxypropan-2-yl)piperazin-1-yl)prop-2-en-1-one] |
| < 10 | CN1CCN(C(=O)/C=C/c2cnn3ccc(N4CCC[C@@H]4c4cc(F)ccc4F)nc23)CC1 [Chemical Compound 53, (R,E)-3-(5-(2-(2,5-difluorophenyl)pyrrolidin-1-yl)pyrazolo[1,5-a]pyrimidin-3-yl)-1-(4-methylpiperazin-1-yl)prop-2-en-1-one] |
| < 10 | CC(C)N1CCN(C(=O)/C=C/c2cnn3ccc(N4CCC[C@@H]4c4cc(F)ccc4F)nc23)CC1 [Chemical Compound 55, (R,E)-3-(5-(2-(2,5-difluorophenyl)pyrrolidin-1-yl)pyrazolo[1,5-a]pyrimidin-3-yl)-1-(4-isopropylpiperazin-1-yl)prop-2-en-1-one] |
| > 100 | O=C(/C=C/c1cnn2ccc(N3CCC[C@@H]3c3cc(F)ccc3F)nc12)N1CCCNCC1 [Chemical Compound 56, (R,E)-1-(1,4-diazepan-1-yl)-3-(5-(2-(2,5-difluorophenyl)pyrrolidin-1-yl)pyrazolo[1,5-a]pyrimidin-3-yl)prop-2-en-1-one] |
| < 10 | CC1(O)CCN(C(=O)/C=C/c2cnn3ccc(N4CCC[C@@H]4c4cc(F)ccc4F)nc23)CC1 [Chemical Compound 58, (R,E)-3-(5-(2-(2,5-difluorophenyl)pyrrolidin-1-yl)pyrazolo[1,5-a]pyrimidin-3-yl)-1-(4-hydroxy-4-methylpiperidin-1-yl)prop-2-en-1-one] |
